In US20080207952A1, “NOVEL THERAPEUTIC APPLICATIONS OF NATURAL POLY ISOPRENYLATED BENZOPHENONE DERIVATIVES AS DRUGS/MEDICAMENTS” (priority 2003, published 2008):
Where two headings read alike, the source gives them in different places.

Key:
[1] = system: Propionibacterium acnes ATCC 11827; assay: Anti-microbial activity against Propionibacterium acnes (disk zone of inhibition on Reinforced Clostridial Agar); assay type: cell-based; conditions: 48 hours at 37° C., anaerobic
Procedure: Propionibacterium acnes was cultured in an anaerobic chamber (Coy Laboratory, USA with an automatic lock purge system). The growth standardization was ensured by culturing the organism in different culture media. The anaerobic conditions were ensured initially with Nitrogen gas and then a mixture of Nitrogen, Hydrogen and Carbon dioxide in a ratio of 80:10:10. A two gas tank arrangement was made wherein only Nitrogen was connected to the transfer chamber and the mixed gas to the main chamber using Gassing Manifold (Hrishi Biotech. Pune, India). The anaerobic media were prepared by heating the media while passing the mixture of gases Nitrogen and Carbon dioxide in a ratio of 4:1 simultaneously. A redox indicator reazurin=0.001% was added to the media. The indicator is colorless in an anaerobic environ and turns blue otherwise. It was dispensed to 30 ml, 20 ml and 10 ml vials sealed with rubber and aluminium clamps and sterilized by autoclaving at 121° C. for 15 minutes.
Propionibacterium acnes ATCC 11827 was sub cultured from broth cultures into vials containing fresh medium. The cultures were then incubated for 48 hours at 37° C. The optical density of the culture at 625 nm was maintained between 0.64 and 0.80 which corresponded to approximately 12×10^6 cells/ml (4.0 MC Mc Farland standard). The anti-microbial susceptibility testing was carried on Reinforced Clostridial Agar (RCA). 0.3 ml of P. acnes culture was inoculated into the culture plates. Culture plates were impregnated with disks comprising varying concentrations of the test naturally occuring poly isoprenylated benzophenone derivatives. The plates were incubated in anaerobic chambers at 37° C. for 48 hours. The test naturally occuring poly isoprenylated benzophenone derivatives were prepared with DMSO as vehicle. The controls included DMSO and Clindac A (Clindamycin Phosphate Gel 1% w/w). The zone of inhibition was measured and expressed in mm. (Table I)

[2] = target: T1, Elastase from Pig pancreas (Sus scrofa, UniProt P00772); assay: Anti-elastase activity (EnzChek elastase assay kit); assay type: biochemical; conditions: read after 30 minutes
T1 construct: purchased; host or cells: pig pancreas
Procedure: Principle: The assays were done using the EnzChek elastase assay kit. The substrate is DQ elastin soluble bovine neck ligament. DQ elastin is labeled with BODIPY FL dye. The non-fluorescent substrate can be digested by elastase to yield highly fluorescent fragments and in the presence of inhibitor, the fluorescence intensity is quenched. The fluorescence intensity was measured in a microplate reader ([…].) Methodology: Varying concentrations of the test material were pre-incubated for 10 minutes with the substrate DQ […]. Elastase from Pig pancreas enzyme was then added and the fluorescence intensity was measured after 30 minutes (Em: 485 nm and Ex: 520 nm.).

COX 2 = target: T2, COX 2 (Ovis aries, UniProt P79208); assay: COX inhibitor screening assay (Cayman, EIA), COX-2; assay type: biochemical; conditions: prostaglandins by EIA
T2 construct: purchased Cayman chemical company 560101
T2 sequence (P79208 17-603): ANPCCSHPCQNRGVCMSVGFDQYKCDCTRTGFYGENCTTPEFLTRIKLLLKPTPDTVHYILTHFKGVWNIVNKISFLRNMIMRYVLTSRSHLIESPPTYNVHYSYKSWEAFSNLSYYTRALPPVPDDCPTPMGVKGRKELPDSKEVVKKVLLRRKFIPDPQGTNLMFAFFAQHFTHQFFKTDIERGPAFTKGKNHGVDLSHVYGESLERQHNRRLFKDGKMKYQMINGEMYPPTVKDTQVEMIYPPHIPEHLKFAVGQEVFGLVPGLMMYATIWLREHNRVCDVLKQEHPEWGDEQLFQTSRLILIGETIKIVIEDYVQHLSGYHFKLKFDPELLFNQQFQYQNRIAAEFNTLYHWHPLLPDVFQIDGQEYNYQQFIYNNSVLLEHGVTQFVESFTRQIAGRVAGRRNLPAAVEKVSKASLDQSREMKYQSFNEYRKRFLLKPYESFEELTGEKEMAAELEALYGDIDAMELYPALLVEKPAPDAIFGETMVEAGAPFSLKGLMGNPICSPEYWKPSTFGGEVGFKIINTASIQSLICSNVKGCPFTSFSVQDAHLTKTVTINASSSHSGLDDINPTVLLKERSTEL

COX-1 = target: T3, COX-1 (Ovis aries, UniProt P05979); assay: COX inhibitor screening assay (Cayman, EIA), COX-1; assay type: biochemical; conditions: substrate Arachidonate, prostaglandins by EIA
T3 construct: purchased Cayman chemical company 560101
T3 sequence (P05979 25-600): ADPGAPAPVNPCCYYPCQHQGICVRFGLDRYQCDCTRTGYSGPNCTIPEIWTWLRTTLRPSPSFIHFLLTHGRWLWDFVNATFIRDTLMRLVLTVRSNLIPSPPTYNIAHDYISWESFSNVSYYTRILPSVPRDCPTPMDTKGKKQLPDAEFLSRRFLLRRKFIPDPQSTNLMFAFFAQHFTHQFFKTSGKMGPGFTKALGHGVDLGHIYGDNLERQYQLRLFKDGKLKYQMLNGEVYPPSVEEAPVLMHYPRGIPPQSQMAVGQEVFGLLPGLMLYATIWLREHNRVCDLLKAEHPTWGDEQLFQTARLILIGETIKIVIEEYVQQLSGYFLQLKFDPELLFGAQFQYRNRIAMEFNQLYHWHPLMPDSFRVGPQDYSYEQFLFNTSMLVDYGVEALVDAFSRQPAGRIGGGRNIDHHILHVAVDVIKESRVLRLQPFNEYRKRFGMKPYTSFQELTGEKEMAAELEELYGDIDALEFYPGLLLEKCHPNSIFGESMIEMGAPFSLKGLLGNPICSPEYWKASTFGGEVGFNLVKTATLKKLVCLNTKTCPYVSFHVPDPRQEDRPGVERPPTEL
Procedure: Principle: The COX inhibitor screening Assay was performed using the Cox inhibitory kit from Cayman chemical company (Catalog No. 560101) by Enzyme Immuno Assay method. Methodology: Enzyme (COX-1) is allowed to react on substrate Arachidonate in presence & absence of the inhibitor. The amount of prostaglandins (PGF2 ? ) produced by stannous chloride reduction of COX-derived PGFH2 are estimated by EIA (Cayman) using a broadly specific antibody that binds to all major prostaglandin compounds. The decrease in PGs released in presence of inhibitor is directly proportional to inhibition.

T1 sequence (P00772 27-266): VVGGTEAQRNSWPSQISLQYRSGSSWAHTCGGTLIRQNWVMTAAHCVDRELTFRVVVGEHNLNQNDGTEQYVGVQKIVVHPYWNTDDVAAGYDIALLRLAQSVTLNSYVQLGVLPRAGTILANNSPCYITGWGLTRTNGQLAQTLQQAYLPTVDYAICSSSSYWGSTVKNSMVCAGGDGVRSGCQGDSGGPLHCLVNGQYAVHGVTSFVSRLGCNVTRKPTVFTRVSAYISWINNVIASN

Row | SMILES | Zone of Inhibition ([1]; Conc. of the sample 0.5%) [mm] | Zone of Inhibition ([1]; Conc. of the sample 1.0%) [mm] | Zone of Inhibition ([1]; Conc. of the sample 2.0%) [mm] | Zone of Inhibition ([1]; Conc. of the sample 5.0%) [mm] | IC50 ([2]; Table III, read-out: IC50 (anti-elastase, sigmoidal dose response curve) (converted)) [µM] | IC50 ([2]; read-out: IC50 (anti-elastase) (converted)) [µM] | Zone of Inhibition ([1]; Conc. of the sample 0.01%) [mm] | Zone of Inhibition ([1]; Conc. of the sample 0.03%) [mm] | Zone of Inhibition ([1]; Conc. of the sample 0.05%) [mm] | Zone of Inhibition ([1]; Conc. of the sample 0.1%) [mm] | Zone of Inhibition ([1]; Conc. of the sample 0.3%) [mm] | IC50 (COX 2) [µM] | IC50 (COX-1) [µM]
1 | CC(C)=CC[C@H]1C[C@@]23C[C@@H](CC=C(C)C)C(C)(C)[C@@](CC=C(C)C)(C(=O)C(C(=O)c4ccc(O)c(O)c4)=C2OC1(C)C)C3=O [Cambogin 90%, Cambogin] | 0 | 0 | 0 | 0 | – | – | – | – | – | – | – | – | –
2 | C=C(C)[C@@H](CC=C(C)C)C[C@@]12C[C@@H](CC=C(C)C)C(C)(C)[C@@](CC=C(C)C)(C(=O)C(C(=O)c3ccc(O)c(O)c3)=C1O)C2=O [Garcinol] | 16 | 18 | 19 | 20 | 496 | 498 | 7 | 8 | 10 | 11 | 14 | 36.5 | 144
